According to US7271005B2, “Modulation of bacterial membrane permeability” (priority 2002, dated 2007):

T1: PprA / PprB (Pseudomonas aeruginosa, UniProt Q9HWA7)
T1 construct: coding regions of the two open reading frames were amplified by PCR; His-tag; made in house; host or cells: E. coli strain M15 (pREP4) with pYW021 (pQE32-pprA) or pYW024 (pQE31-pprB)
T1 sequence (Q9HWA7 1-922): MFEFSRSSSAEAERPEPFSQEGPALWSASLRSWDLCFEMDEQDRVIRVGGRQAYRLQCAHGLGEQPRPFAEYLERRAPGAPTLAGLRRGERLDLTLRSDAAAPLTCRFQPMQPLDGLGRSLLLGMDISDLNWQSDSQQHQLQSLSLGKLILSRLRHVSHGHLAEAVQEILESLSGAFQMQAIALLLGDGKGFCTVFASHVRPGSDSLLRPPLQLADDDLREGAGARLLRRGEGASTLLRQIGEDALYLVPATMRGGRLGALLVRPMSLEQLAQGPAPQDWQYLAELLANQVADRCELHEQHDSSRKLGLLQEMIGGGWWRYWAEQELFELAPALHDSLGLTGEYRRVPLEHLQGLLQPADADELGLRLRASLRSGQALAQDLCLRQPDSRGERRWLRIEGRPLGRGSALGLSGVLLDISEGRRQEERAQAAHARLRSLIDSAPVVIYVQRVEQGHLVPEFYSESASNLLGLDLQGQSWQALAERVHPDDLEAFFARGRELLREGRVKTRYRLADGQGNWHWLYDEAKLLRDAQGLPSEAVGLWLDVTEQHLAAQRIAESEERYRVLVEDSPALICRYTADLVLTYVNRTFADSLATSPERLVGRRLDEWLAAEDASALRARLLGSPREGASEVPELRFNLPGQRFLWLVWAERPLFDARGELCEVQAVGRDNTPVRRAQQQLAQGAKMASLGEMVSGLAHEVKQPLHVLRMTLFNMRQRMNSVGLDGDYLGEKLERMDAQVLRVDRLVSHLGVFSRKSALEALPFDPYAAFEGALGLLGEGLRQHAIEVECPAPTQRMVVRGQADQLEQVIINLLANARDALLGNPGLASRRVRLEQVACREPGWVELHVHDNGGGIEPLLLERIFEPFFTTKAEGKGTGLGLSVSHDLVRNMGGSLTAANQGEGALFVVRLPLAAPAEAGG

B1: PprB: putative response regulator (PA4296) encoded by pprB, SEQ ID NO:4; His-tagged, purified from E. coli (protein, listed as Pseudomonas aeruginosa)
chain: MDKPASRHFSVLIIDDEPQVTSELRELLENSGYRCVTSTHRESAIASFQADPNIGLVICDLYLGQDNGIRLIESLKEVAGNGRFFESIILTGHDGRQEVIEAMRVGAADYYQKPVAPQELLHGLERLESRLHERVRSQLSLSHVNQRLEYLAESLNSIYRDIHKIKYEVHGNSQPSALRSEDSQPSAPPAPVAESQVSPSNPLFGKLSPRQQAVARLVSKGLTNYQIAYELGITENTVKLYVSQVLRLMHMHNRTQLALALSPAAMQQGSGAVVH
modifications: His tag
notes: His-tagged, purified from E. coli
B2: PprA: putative histidine kinase homolog (PA4293) encoded by pprA, SEQ ID NO:3; His-tagged, purified from E. coli (protein, listed as Pseudomonas aeruginosa)
chain: T1 sequence (Q9HWA7 1-922)
modifications: His tag
notes: as for B1

Tests used:
P. aeruginosa PAK1-3 = assay: Antibiotic resistance of spontaneous neomycin-resistant mutant PAK1-3 compared with parent PAK; assay type: cell-based, Pseudomonas aeruginosa; settings: mutant PAK1-3 versus parent strain PAK
Method: A mutant P. aeruginosa (PAK) strain was used to identify the pprA membrane permeability-associated gene. Spontaneous neomycin resistant mutants of PAK were selected by culturing on L-agar medium containing 200 μg/ml neomycin.

[1] = test system: clinical isolates of P. aeruginosa; assay: Antibiotic sensitivity of CF and non-CF blood clinical isolates; assay type: cell-based, Pseudomonas aeruginosa; settings: 18 CF and 18 non-CF blood isolates; tetracycline 100 μg/ml
Method: Overexpression of the pprB gene in clinical isolates increases sensitivity to aminoglycosides. The pprB overexpresser construct was introduced into aminoglycoside-resistant clinical isolates of P. aeruginosa. 18 cystic fibrosis (CF) isolates and 18 non-CF blood isolates showing varying degrees of resistance to all aminoglycosides were randomly chosen for analysis. Since most of the strains were also resistant to carbenicillin, but sensitive to tetracycline (100 μg/ml), a tetracycline-resistant construct, pRRBTc, that expresses the pprB gene under lac promoter was used.

PprA / PprB [2] = molecular target: T1, PprA / PprB; assay: In vitro phosphorylation assay with [γ-32P] ATP; assay type: biochemical; settings: 5 min at room temperature, SDS-PAGE, X-ray film
Source text: (§1) PprA or PprB were purified and expressed at high levels in E. coli. To produce PprA or PprB in E.coli, coding regions of the two open reading frames were amplified by PCR as described in Wang et al., supra. The PCR products were first cloned into pCR2.1-TOPO, designated pYW017 and pYW020, respectively. Subsequently, a 2.8 kb pprA fragment from pYW017 and an 862 bp pprB fragment from pYW020 were isolated and subcloned into the BamHI and HindIII sites of pQE32 and pQE31, resulting in pYW021 and pYW024, respectively.
(§2) To purify the His-tagged PprA or PprB, E.coli strain M15 harboring pREP4 and pYW021 or pYW024 were induced with 1 mM IPTG for six hours at 28° C. His-tagged PprA and PprB were affinity purified using Ni-agarose column from the soluble fraction of the cell extracts according to the protocol provided by Qiagen, Inc. The purified proteins were dialyzed against storage buffer (50 mM TrisCl pH8.0, 50 mM KCl, 5 mM MgCl2, 1 mM DTT and 50% glycerol) for overnight and stored at−20° C. until use.
(§3) PprA and PprB function in a two-component regulatory system. Like other two-component regulatory genes, both PprA and PprB contain conserved phosphorylation sites (histidine and aspartate, respectively). An in vitro phosphorylation assay was performed to investigate the relationship between the PprA and PprB. PprA and PprB were purified as described in Example 4. […]

PAK1-3 cells = assay: Complementation of PAK1-3: aminoglycoside sensitivity after introduction of plasmids; assay type: cell-based, Pseudomonas aeruginosa; settings: PprB overexpression compared with PprA overexpression
Source text: A gene associated with membrane permeability, termed pprA, was identified by complementation assay in PAK1-3 cells. On the assumption that the PAK1-3 strain is an impermeable mutant due to loss of a gene function, an effort was made to complement the mutant with wild type PAK chromosomal DNA clones. A clone bank of 3-5 kb PAK chromosomal DNA was constructed in pUCP18, a broad host range plasmid with a lac promoter and β-lactamase. Plasmids with DNA inserts were gel purified from the clone bank and electroporated into PAK1-3.
Transformants were first selected on L-agar containing carbenicillin (150 μg/ml) and then replica plated on L-agar containing carbenicillin (150 μg/ml) plus neomycin (200 μg/ml) to screen for isolates that are sensitive to aminoglycosides. […] Plasmids were purified from the three isolates and re-transformed into fresh PAK1-3 cells. […] This plasmid was designated pUCP18B.
The pprB gene was amplified from the PAK chromosome by PCR and cloned into pUCP19, inserted in the same or opposite direction relative to the lac promoter on the vector. The resulting constructs were designated pZLRR-α and pZLRR-β, respectively. See, Wang et al., 2003, Antimicrobial Agents and Chemotherapy 47:95-101. The PCR product was cloned into pCR2.1-TOPO, resulting pCR-RR in which the pprB gene is in the opposite direction relative to the lac promoter. […]

PprA / PprB [3] = assay: In vitro phosphorylation assay with [γ-32P] ATP; assay type: biochemical, Pseudomonas aeruginosa; settings: 5 min at room temperature, SDS-PAGE, X-ray film
Source text: as §1, §2, §3

Molecule	change of resistance/sensitivity of PAK1-3 to the antibiotic (P. aeruginosa PAK1-3)	other results
NC[C@H]1O[C@H](O[C@H]2[C@H](O)[C@@H](O[C@H]3O[C@H](CO)[C@@H](O)[C@H](N)[C@H]3O)[C@H](N)C[C@@H]2N)[C@H](N)C[C@@H]1O [tobamycin]	increased resistance	–
CC[C@H]1OC(=O)[C@H](C)[C@@H](O[C@H]2C[C@@](C)(OC)[C@@H](O)[C@H](C)O2)[C@H](C)[C@@H](O[C@@H]2O[C@H](C)C[C@H](N(C)C)[C@H]2O)[C@](C)(O)C[C@@H](C)C(=O)[C@H](C)[C@@H](O)[C@]1(C)O [erythromycin]	increased resistance	–
[H]/N=C(/N)N[C@H]1[C@H](O)[C@@H](O)[C@H](O[C@@H]2O[C@@H](C)[C@](O)(C=O)[C@H]2O[C@@H]2O[C@@H](CO)[C@H](O)[C@@H](O)[C@@H]2NC)[C@@H](N/C(N)=N\[H])[C@@H]1O [streptomycin]	increased resistance	–
CC1(C)S[C@@H]2[C@H](NC(=O)C(C(=O)O)c3ccccc3)C(=O)N2[C@H]1C(=O)O (some centres unmarked) [carbenicillin]	not significantly changed	sensitivity of most of the clinical isolates [1]: resistant
gentamicin	increased resistance	–
O=C(O)c1cn(C2CC2)c2cc(N3CCNCC3)c(F)cc2c1=O [ciprofloxacin]	increased resistance	–
NCC[C@H](O)C(=O)N[C@@H]1C[C@H](N)[C@@H](O[C@H]2O[C@H](CN)[C@@H](O)[C@H](O)[C@H]2O)[C@H](O)[C@H]1O[C@H]1O[C@H](CO)[C@@H](O)[C@H](N)[C@H]1O [amikacine]	increased resistance	–
B1	–	phosphorylation of PprB when PprA was mixed with PprB (PprA / PprB [2]): highly phosphorylated; effect of overexpression on the MIC change of PAK1-3 (PAK1-3 cells): much more dramatic
B2	–	phosphorylation of the purified protein alone (PprA / PprB [3]): phosphorylated
